# In paper PMC7799360, “Reprogramming immunosuppressive myeloid cells facilitates immunotherapy for colorectal cancer” (EMBO Molecular Medicine, 2020):
# Key:
# ADRA1B = target: T1, ADRA1B (Homo sapiens, UniProt P35368); assay: GPCR calcium flux assay; assay type: cell-based
# T1 construct: Pharmaron (Beijing, China) performed the assay
# AVPR1A = target: T2, AVPR1A (Homo sapiens, UniProt P37288); assay: GPCR calcium flux assay; assay type: cell-based
# T2 construct: Pharmaron (Beijing, China), contract laboratory
# HUVEC = assay: Cell viability (MTS); assay type: cell-based, human; settings: 100 µM
# Excerpt: (§1) The murine colon cancer (CT26), murine breast cancer (4T1), and human colon cancer (HCT116, HCT8, HT29, and DLD1) cell lines were obtained from American Type Culture Collection (ATCC). The murine cell lines of melanoma (B16F10), pancreatic cancer (Pan02), and colon cancer (MC38), Chinese hamster ovary (CHO) cell line, and human embryonic kidney cell lines (HEK293 and HEK293T) were purchased from the National Infrastructure of Cell Line Resource (Shanghai, China). Primary human endothelial cells (HUVECs) were kindly provided by Dr. Xinli Wang (Baylor College of Medicine, Houston, TX, USA) and cultured in endothelial cell medium (ScienCell, San Diego, CA, USA) according to the manufacturer’s instructions. The CHO‐Gα16 cell line was established in our previous study and maintained in DMEM/F12 medium containing puromycin (4 μg/ml) (Wu et al., 2018). Cell lines were maintained in vendor recommended growth medium supplemented with 10% FBS (Gibco, Waltham, MA, USA) and 1% penicillin/streptomycin solution (Gibco) at 37°C ins a humidified atmosphere (5% CO2). All cell lines were authenticated using short tandem repeat analysis. All cell lines were confirmed to be mycoplasma‐free by polymerase chain reaction (PCR) analysis. Cell viability was determined using CellTiter 96 ® Aqueous One Solution (Promega, Madison, WI).
# (§2) Appendix Figure S1. […]. The cytotoxicity curves
# (§3) . Mouse cancer cells: CT26
# (§4) . Human colon cancer cells: HCT116 (E),
# (§5) HCT8 (F), HT29 (G) and DLD1 (H). Human normal cell line: HUVECs (I). Cell
# (§6) viability was measured by MTS. Data are presented as mean ± SEM derived
# (§7) from three independent experiments (n=3).
# (§8) (1 picture or pasted object on this page, not shown here)
# HCT116 = assay: Cell viability (MTS); assay type: cell-based, human; settings: HCT116, 100 µM
# Excerpt: as §1, §2, §3, §4, §5, §6, §7, §8
# HCT8 = assay: Cell viability (MTS); assay type: cell-based, human; settings: HCT8, 100 µM
# Excerpt: as §1, §2, §3, §4, §5, §6, §7, §8
# CHRM2 = target: T3, CHRM2 (Homo sapiens, UniProt P08172); assay: GPCR calcium flux assay; assay type: cell-based
# T3 construct: Pharmaron (Beijing, China), contract laboratory
# HRH1 = target: T4, HRH1 (Homo sapiens, UniProt P35367); assay: GPCR calcium flux assay; assay type: cell-based
# T4 construct: Pharmaron (Beijing, China), contract laboratory
# OPRD1 = target: T5, OPRD1 (Homo sapiens, UniProt P41143); assay: GPCR calcium flux assay; assay type: cell-based
# T5 construct: Pharmaron (Beijing, China), contract laboratory
# human EP3 = human EP3 (Homo sapiens, UniProt P43115); assay: PGE2-induced calcium flux assay in CHO-Gα16 cells; assay type: cell-based
# [1] = In vitro metabolic stability using liver microsome; assay type: in vitro ADME; settings: mouse liver microsome
# CHRM3 = target: T6, CHRM3 (Homo sapiens, UniProt P20309); assay: GPCR calcium flux assay; assay type: cell-based
# T6 construct: Pharmaron (Beijing, China), contract laboratory
# HTR2B = target: T7, HTR2B (Homo sapiens, UniProt P41595); assay: GPCR calcium flux assay; assay type: cell-based
# T7 construct: Pharmaron (Beijing, China), contract laboratory
# OPRK1 = target: T8, OPRK1 (Homo sapiens, UniProt P41145); assay: GPCR calcium flux assay; assay type: cell-based
# T8 construct: Pharmaron (Beijing, China), contract laboratory
# mouse bone marrow cells = assay: Macrophage polarization assay (M-CSF/IL-4/PGE2, M2 macrophages); assay type: cell-based; settings: M-CSF/IL-4/PGE2, 6 days, concentration-dependent
# Protocol: Single‐cell suspensions of mouse BM cells were prepared by filtering femurs and tibias of 6‐week‐old female BALB/c mice through 40‐μm cell strainers (Falcon). These suspensions were treated with red blood cell lysis buffer and replated in conditioned medium. Monocyte differentiation, MDSC induction, and macrophage polarization were analyzed by FACS analysis (BD Biosciences) with FlowJo software.
# For macrophage polarization assay (De Henau et al., 2016; Tan et al., 2018), mouse BM cells were cultured in RPMI1640 medium supplemented with recombinant mouse M‐CSF (20 ng/ml, Peprotech) to generate BM‐derived macrophages (BMDM). For FACS analysis of BM‐derived M2‐like macrophage, IL‐4 (20 ng/ml, Peprotech) and PGE2 (10 nM) were added on day 0. TP‐16 was added simultaneously with PGE2 on day 0 or sequentially on day 3 for differentiation over a period of 6 days. For qPCR analysis of macrophages (day 6), BMDMs were polarized with IFNγ (50 ng/ml, Peprotech) or IL‐4 (20 ng/ml, Peprotech) ± PGE2 (10 nM) ± TP‐16 for 24 h at 37°C on day 6. The culture medium was refreshed every 3 days.
# other 25 GPCRs = assay: GPCR selectivity (LANCE Ultra cAMP assay and calcium flux assay); settings: read-out: IC50 on other 25 GPCRs; LANCE Ultra cAMP and calcium flux assays
# CT26-Luc tumors = assay: CT26-Luc orthotopic colorectal cancer mouse model; assay type: in vivo
# AT1 = target: T9, AT1 (Homo sapiens, UniProt P30556); assay: GPCR calcium flux assay; assay type: cell-based
# T9 construct: Pharmaron (Beijing, China), contract laboratory
# 4T1 tumors = assay: 4T1 breast cancer model in BALB/c mice; assay type: in vivo, mouse; settings: 4T1, BALB/c mice, 75 mg/kg p.o. daily
# Protocol: Syngeneic mouse tumor‐bearing models were established as described previously (Tan et al., 2018). Tumor cells (5 × 10^5 ‐ 2 × 10^6) were suspended in 100 μl PBS and implanted subcutaneously into the flank of mice. Mice were randomized into different treatment groups when tumor volumes reached 100‐200 mm^3. V = L×W^2 × 0.52, where L is the longest diameter, and W is the shortest diameter. Tumor size and body weight were recorded every second or third day. Mouse survival was analyzed using the Kaplan–Meier method.
# Single agent or combination treatment was designed as follows: TP‐16 (37.5, 75, 150 mg/kg) or celecoxib (100 mg/kg) was formulated in 0.5% carboxymethylcellulose sodium (CMC‐Na, Sangon Biotech, Shanghai, China) and administered via oral gavage daily. In vivo anti‐PD1 antibody (clone RMP1‐14, BioXCell, West Lebanon, NH, USA) and rat IgG2a isotype control (clone 2A3, BioXCell) were diluted in sterile PBS and administered intraperitoneally at a dose of 50 μg twice weekly.
# ADRA2A = target: T10, ADRA2A (Homo sapiens, UniProt P08913); assay: GPCR calcium flux assay; assay type: cell-based
# T10 construct: Pharmaron (Beijing, China) performed the assay
# T10 sequence (P08913 whole entry, species assumed): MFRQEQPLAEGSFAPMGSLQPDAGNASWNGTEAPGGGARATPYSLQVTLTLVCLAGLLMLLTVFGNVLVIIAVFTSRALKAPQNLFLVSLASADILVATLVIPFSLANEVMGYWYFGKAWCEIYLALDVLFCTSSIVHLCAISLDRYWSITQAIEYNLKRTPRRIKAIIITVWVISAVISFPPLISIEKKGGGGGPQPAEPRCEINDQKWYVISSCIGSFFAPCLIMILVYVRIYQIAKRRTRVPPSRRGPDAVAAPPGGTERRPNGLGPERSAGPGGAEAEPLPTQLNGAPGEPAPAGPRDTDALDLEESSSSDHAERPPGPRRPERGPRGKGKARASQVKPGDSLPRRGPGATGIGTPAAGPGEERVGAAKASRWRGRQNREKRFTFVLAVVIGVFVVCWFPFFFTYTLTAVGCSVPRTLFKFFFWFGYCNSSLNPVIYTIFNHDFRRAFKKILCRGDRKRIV
# T2 sequence (P37288 whole entry, species assumed): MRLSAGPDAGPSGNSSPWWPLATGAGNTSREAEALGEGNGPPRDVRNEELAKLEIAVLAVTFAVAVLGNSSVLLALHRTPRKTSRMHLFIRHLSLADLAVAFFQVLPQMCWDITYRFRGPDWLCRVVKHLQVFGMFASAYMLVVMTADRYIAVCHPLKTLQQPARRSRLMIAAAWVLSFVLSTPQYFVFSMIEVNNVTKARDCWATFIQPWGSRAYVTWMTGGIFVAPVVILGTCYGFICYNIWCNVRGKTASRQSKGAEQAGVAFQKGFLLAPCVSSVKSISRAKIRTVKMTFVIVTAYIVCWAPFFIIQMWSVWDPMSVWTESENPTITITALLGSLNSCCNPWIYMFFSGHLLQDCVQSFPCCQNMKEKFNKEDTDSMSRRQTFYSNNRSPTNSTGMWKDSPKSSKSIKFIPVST
# T9 sequence (P30556 whole entry): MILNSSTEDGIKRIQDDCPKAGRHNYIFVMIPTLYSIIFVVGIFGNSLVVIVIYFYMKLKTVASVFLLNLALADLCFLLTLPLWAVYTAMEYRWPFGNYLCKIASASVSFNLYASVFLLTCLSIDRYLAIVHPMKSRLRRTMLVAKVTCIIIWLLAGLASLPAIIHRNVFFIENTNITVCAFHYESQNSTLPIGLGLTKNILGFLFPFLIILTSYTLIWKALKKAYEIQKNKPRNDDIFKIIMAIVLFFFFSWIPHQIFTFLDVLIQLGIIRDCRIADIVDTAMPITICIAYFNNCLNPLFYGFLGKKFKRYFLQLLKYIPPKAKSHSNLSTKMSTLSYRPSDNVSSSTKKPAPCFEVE
# T6 sequence (P20309 whole entry, species assumed): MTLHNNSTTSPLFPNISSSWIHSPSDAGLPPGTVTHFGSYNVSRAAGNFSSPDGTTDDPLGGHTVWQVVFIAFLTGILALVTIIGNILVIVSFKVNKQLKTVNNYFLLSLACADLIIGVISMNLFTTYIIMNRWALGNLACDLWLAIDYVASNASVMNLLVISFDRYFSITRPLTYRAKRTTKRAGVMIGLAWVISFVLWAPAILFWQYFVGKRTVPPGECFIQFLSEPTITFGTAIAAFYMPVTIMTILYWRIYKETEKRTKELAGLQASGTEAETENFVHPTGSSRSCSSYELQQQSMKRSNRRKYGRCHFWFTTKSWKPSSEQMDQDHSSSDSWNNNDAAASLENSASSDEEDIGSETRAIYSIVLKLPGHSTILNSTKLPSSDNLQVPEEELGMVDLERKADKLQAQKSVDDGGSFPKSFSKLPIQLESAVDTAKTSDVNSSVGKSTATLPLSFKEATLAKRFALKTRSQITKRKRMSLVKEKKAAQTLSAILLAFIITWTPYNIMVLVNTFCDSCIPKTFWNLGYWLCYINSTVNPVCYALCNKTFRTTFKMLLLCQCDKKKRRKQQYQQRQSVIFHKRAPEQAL
# T8 sequence (P41145 whole entry, species assumed): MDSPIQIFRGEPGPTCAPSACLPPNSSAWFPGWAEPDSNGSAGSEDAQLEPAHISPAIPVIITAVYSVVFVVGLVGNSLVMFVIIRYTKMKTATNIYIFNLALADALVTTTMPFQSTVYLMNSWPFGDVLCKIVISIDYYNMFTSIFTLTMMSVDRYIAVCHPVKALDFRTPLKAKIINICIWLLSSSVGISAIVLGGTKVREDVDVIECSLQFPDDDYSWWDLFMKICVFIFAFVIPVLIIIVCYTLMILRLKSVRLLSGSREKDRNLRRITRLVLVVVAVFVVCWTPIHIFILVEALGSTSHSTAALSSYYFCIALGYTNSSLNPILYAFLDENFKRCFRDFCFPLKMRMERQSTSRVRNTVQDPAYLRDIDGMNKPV
# T3 sequence (P08172 whole entry, species assumed): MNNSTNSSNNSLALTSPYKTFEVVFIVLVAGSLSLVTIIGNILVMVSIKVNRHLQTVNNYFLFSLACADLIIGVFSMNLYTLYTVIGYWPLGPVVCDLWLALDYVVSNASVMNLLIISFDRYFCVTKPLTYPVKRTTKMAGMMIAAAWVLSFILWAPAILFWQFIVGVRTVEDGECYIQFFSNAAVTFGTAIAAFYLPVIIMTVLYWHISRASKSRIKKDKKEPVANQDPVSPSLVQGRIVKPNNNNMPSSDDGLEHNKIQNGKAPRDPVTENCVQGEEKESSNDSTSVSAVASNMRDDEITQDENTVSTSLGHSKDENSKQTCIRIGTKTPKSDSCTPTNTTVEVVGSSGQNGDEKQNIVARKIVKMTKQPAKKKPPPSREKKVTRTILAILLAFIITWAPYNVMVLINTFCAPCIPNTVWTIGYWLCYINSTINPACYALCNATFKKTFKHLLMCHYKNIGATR
# T4 sequence (P35367 whole entry, species assumed): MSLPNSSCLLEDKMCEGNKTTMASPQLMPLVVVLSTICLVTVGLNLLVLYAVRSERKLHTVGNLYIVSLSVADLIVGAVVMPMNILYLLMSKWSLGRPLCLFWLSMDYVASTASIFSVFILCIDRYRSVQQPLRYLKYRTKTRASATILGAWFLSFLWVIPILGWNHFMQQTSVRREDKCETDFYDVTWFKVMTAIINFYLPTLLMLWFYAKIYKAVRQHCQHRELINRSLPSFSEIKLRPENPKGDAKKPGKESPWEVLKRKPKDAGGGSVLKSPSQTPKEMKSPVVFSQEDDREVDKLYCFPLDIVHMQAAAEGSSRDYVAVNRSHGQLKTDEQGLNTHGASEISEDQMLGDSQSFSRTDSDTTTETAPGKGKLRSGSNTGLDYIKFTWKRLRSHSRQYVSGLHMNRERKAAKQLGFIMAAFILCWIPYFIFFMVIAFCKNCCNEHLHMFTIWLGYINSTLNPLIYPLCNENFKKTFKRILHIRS
# T7 sequence (P41595 whole entry, species assumed): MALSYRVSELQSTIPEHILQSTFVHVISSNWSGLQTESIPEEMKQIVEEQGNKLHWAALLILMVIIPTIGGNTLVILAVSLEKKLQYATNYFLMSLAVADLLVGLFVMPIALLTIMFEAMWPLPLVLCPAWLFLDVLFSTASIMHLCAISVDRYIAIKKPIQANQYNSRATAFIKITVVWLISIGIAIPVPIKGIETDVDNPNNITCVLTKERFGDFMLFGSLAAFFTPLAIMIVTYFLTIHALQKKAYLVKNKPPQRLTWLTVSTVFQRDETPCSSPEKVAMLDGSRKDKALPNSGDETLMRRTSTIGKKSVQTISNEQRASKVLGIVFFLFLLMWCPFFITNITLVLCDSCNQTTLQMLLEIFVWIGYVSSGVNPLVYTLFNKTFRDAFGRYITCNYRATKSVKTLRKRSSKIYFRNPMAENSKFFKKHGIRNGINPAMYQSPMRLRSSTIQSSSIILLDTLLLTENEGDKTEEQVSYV
# T5 sequence (P41143 whole entry, species assumed): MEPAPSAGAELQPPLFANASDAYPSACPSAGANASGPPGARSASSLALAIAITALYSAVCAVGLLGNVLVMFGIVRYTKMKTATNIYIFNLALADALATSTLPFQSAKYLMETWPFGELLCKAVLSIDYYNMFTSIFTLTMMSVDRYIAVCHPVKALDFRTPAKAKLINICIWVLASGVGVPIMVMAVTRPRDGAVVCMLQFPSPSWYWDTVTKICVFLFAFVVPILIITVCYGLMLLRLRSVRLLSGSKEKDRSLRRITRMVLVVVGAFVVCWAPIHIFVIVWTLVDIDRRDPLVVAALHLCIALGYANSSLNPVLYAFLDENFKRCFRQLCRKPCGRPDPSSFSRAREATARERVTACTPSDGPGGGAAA
# Sequence of human EP3 (P43115 1-359 limits assumed): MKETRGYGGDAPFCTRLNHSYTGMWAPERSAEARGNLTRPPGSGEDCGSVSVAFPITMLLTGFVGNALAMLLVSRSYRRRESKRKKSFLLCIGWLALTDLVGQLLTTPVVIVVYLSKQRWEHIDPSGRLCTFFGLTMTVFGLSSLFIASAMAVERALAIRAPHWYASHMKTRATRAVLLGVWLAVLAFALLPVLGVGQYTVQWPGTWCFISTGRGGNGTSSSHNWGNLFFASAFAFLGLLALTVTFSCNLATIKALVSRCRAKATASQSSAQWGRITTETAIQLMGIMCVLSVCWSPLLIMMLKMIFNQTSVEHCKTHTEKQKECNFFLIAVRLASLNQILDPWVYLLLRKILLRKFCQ
# T1 sequence (P35368 whole entry, species assumed): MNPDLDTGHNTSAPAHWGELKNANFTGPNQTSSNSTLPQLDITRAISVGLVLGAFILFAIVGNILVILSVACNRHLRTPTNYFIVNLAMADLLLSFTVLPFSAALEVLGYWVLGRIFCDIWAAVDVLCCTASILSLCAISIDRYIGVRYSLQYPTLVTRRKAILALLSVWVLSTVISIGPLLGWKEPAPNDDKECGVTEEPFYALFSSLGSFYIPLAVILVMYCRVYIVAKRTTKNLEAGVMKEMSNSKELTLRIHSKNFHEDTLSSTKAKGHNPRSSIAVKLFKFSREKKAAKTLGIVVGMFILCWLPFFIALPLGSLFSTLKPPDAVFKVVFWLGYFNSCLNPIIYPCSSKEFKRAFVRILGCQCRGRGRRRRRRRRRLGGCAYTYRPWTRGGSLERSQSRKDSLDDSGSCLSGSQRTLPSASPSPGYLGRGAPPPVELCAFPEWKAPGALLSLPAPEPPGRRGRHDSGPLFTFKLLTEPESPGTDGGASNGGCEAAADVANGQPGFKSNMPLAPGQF
smiles,measurement,setting,value
C[C@H](NC(=O)c1c(Cc2ccc(F)cc2)sc2c1CCOC2)c1ccc(C(=O)O)cc1 [TP-16],IC50,ADRA1B,> 10 µM
same,IC50,AVPR1A,> 10 µM
same,effect on cell viability,HUVEC,did not affect the viability
same,effect on cell viability,HCT116,did not affect the viability
same,effect on cell viability,HCT8,did not affect the viability
same,IC50,CHRM2,> 10 µM
same,IC50,HRH1,> 10 µM
same,IC50,OPRD1,> 10 µM
same,IC50,human EP3,> 10 µM
same,hepatocyte CLint,[1]; liver microsomes,5.91 µL/min/1e6 cells
same,half-life,"[1]; liver microsomes, read-out: In vitro T1/2",3.92 h
same,CLhep predicted,"[1]; liver microsomes, read-out: Predicted hepatic Clint",39.3 mL/min/kg
same,CLint scaled,"[1]; liver microsomes, read-out: Scale-up Clint",69.8 mL/min/kg
same,Remaining Percentages at 120 min,[1],70.6%
same,IC50,CHRM3,> 10 µM
same,IC50,HTR2B,> 10 µM
same,IC50,OPRK1,> 10 µM
same,PGE2-induced polarization of M2 macrophages,mouse bone marrow cells,significantly suppressed
same,IC50,other 25 GPCRs,> 10 µM
same,%TGI,CT26-Luc tumors; CT26-Luc orthotopic model,76.22%
same,body weight of tumor-bearing mice,CT26-Luc tumors; at the given doses,no significant change
same,IC50,AT1,> 10 µM
same,%TGI,4T1 tumors,27.3%
same,IC50,ADRA2A,> 10 µM
